Test results reported in patent US20090239841A1, “Diaryl Ureas as CB1 Antagonists” (priority 2004, published 2009).

Molecular target: T1, hCB1 (Homo sapiens, UniProt P21554)
T1 construct: made in house; host or cells: Sf9 insect cells (baculovirus), P2 membranes
Assay: Agonist-induced GTP binding (GTPγ35S) assay at CB1, Example 8
Format: biochemical
Settings: IC50 at CB1, determined as described in Example 8; read-out: IC50
How it was run: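 Membranes from Sf9 cells co-expressing hCB1 and heterotrimeric G-protein (10 μg protein) in Tris pH 7.4 buffer with 5 μM GDP. Test compounds (10^−10–10^−5 M) competed against 1 nM CP55,940 with […] GTPγ35S, 60 min at room temperature. Filter-bound radioactivity by scintillation, expressed as percent above basal.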

T1 sequence (P21554 whole entry): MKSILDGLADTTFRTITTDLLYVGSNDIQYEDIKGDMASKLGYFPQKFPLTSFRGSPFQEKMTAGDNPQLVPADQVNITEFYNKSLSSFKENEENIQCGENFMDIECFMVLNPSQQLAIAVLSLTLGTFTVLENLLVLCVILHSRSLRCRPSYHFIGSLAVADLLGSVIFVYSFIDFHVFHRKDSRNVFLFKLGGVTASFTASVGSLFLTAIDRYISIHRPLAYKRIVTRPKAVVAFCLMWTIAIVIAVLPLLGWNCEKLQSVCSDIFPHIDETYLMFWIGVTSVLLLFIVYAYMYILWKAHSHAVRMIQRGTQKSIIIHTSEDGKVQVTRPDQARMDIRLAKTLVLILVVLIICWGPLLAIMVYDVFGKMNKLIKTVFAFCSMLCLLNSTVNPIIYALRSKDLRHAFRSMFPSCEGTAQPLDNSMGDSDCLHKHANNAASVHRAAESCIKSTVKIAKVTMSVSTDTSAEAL

Compound	IC50 [nM]
CCOC(=O)c1cccc(NC(=O)Nc2ccc(C(C)C)cc2)c1 [Compound 649, ethyl 3-({[(4-isopropylphenyl)amino]carbonyl}amino)benzoate]	< 2000
COCc1ccc(NC(=O)Nc2ccc(C(C)=O)cc2)cc1 [Compound 415, 1-(4-acetylphenyl)-3-[4-(methoxymethyl)phenyl]urea]	< 2000
CCCc1ccc(NC(=O)Nc2ccccc2)cc1 [Compound 291, N-phenyl-N′-(4-propylphenyl)urea]	< 2000
O=C(Nc1ccc(F)c(F)c1)Nc1ccc2c(c1)CCC2 [Compound 775, 1-(3,4-difluorophenyl)-3-(2,3-dihydro-1H-inden-5-yl)urea]	< 2000
CC(C)c1ccc(NC(=O)Nc2ccc(C#N)cc2)cc1 [Compound 345, 1-(4-cyanophenyl)-3-(4-isopropylphenyl)urea]	< 2000
CCOC(=O)c1ccc(NC(=O)Nc2cccc(OC(C)C)c2)cc1 [Compound 673, ethyl 4-({[(3-isopropoxyphenyl)amino]carbonyl}amino)benzoate]	< 2000
CCc1ccc(NC(=O)Nc2ccc(C)c(C)c2)cc1 [Compound 436, 1-(3,4-dimethylphenyl)-3-(4-ethylphenyl)urea]	< 2000
CCn1nnc(-c2ccc(NC(=O)Nc3cccc(OC(F)F)c3)cc2)n1 [Compound 792, N-[3-(difluoromethoxy)phenyl]-N′-[4-(2-ethyl-2H-tetrazol-5-yl)phenyl]urea]	< 2000
O=C(Nc1ccc(OC(F)(F)F)cc1)Nc1cccc(OC(F)F)c1 [Compound 540, 1-[3-(difluoromethoxy)phenyl]-3-[4-(trifluoromethoxy)phenyl]urea]	< 2000
CC(C)c1ccccc1NC(=O)Nc1cccc(OC(F)F)c1 [Compound 576, 1-[3-(difluoromethoxy)phenyl]-3-(2-isopropylphenyl)urea]	< 2000
CCOc1ccc(NC(=O)Nc2ccc(Cl)c(C)c2)cc1 [Compound 623, 1-(4-chloro-3-methylphenyl)-3-(4-ethoxyphenyl)urea]	< 2000
COC(=O)c1ccc(NC(=O)Nc2ccc(CC#N)cc2)cc1 [Compound 713, methyl 4-[({[4-(cyanomethyl)phenyl]amino}carbonyl)amino]benzoate]	< 2000
Cc1ccc(NC(=O)Nc2ccc(CCO)cc2)cc1C [Compound 761, 1-(3,4-dimethylphenyl)-3-[4-(2-hydroxyethyl)phenyl]urea]	< 2000
O=C(Nc1cccc(OC(F)F)c1)Nc1cccc([N+](=O)[O-])c1 [Compound 565, 1-[3-(difluoromethoxy)phenyl]-3-(3-nitrophenyl)urea]	< 2000

Next, values leading:

IC50 [nM]	Compound
< 2000	O=C(Nc1ccc(OC(F)F)cc1)Nc1ccccc1Br [Compound 605, 1-(2-bromophenyl)-3-[4-(difluoromethoxy)phenyl]urea]
< 2000	CCc1ccc(NC(=O)Nc2ccc(C#N)cn2)cc1 [Compound 636, 1-(5-cyanopyridin-2-yl)-3-(4-ethylphenyl)urea]
< 2000	COCc1ccc(NC(=O)Nc2ccc(OC)cc2)cc1 [Compound 545, 1-[4-(methoxymethyl)phenyl]-3-(4-methoxyphenyl)urea]
< 2000	Cc1ccccc1NC(=O)Nc1cccc(OC(F)F)c1 [Compound 377, 1-[3-(difluoromethoxy)phenyl]-3-(2-methylphenyl)urea]
< 2000	Cc1ccc(NC(=O)Nc2cccc(OC(F)F)c2)cc1F [Compound 696, 1-[3-(difluoromethoxy)phenyl]-3-(3-fluoro-4-methylphenyl)urea]
< 2000	CCc1ccc(NC(=O)Nc2cccc(OC(F)F)c2)cc1 [Compound 407, 1-[3-(difluoromethoxy)phenyl]-3-(4-ethylphenyl)urea]
< 2000	CCOC(=O)c1ccc(NC(=O)Nc2ccc(OC(C)C)cc2)cc1 [Compound 675, ethyl 4-({[(4-isopropoxyphenyl)amino]carbonyl}amino)benzoate]
< 2000	N#CCc1ccc(NC(=O)Nc2cccc(F)c2)cc1 [Compound 461, 1-[4-(cyanomethyl)phenyl]-3-(3-fluorophenyl)urea]
< 2000	CCn1nnnc1-c1ccc(NC(=O)Nc2cccc(OC(F)F)c2)cc1 [Compound 791, N-[3-(difluoromethoxy)phenyl]-N′-[4-(1-ethyl-1H-tetrazol-5-yl)phenyl]urea]
< 2000	CCc1ccc(NC(=O)Nc2ccccc2[N+](=O)[O-])cc1 [Compound 515, 1-(4-ethylphenyl)-3-(2-nitrophenyl)urea]
< 2000	CCc1cccc(NC(=O)Nc2ccc(CC#N)cc2)c1 [Compound 482, 1-[4-(cyanomethyl)phenyl]-3-(3-ethylphenyl)urea]

Same assay, conditions: Table I; IC50 at CB1, GTP binding with 1 nM CP55,940; read-out: IC50

IC50 [nM]	Compound
< 2000	CCCOc1ccc(NC(=O)Nc2ccc(C)cc2)cc1 [Compound 40, N-(4-methylphenyl)-N′-(4-propoxyphenyl)urea]
< 2000	CCCc1ccc(NC(=O)Nc2ccc(C)cc2)cc1 [Compound 39, N-(4-methylphenyl)-N′-(4-propylphenyl)urea]
< 2000	CCc1ccc(NC(=O)Nc2ccccc2)cc1 [Compound 35, N-(4-ethylphenyl)-N′-phenylurea]

Same assay, conditions: Table II; IC50 at CB1, GTP binding with 1 nM CP55,940; read-out: IC50

Compound	IC50 [nM]
COc1ccc(NC(=O)Nc2ccc(OC(F)F)cc2)cc1OC [Compound 92, N-[4-(difluoromethoxy)phenyl]-N′-(3,4-dimethoxyphenyl)urea]	< 2000
COCc1ccc(NC(=O)Nc2ccc(C)cc2)cc1 [Compound 207, N-[4-(methoxymethyl)phenyl]-N′-(4-methylphenyl)urea]	< 2000
CCCc1ccc(NC(=O)Nc2cccc(Cl)c2)cc1 [Compound 184, N-(3-chlorophenyl)-N′-(4-propylphenyl)urea]	< 2000
COc1ccc(NC(=O)Nc2ccc(OC(F)F)cc2)cn1 [Compound 113, N-[4-(difluoromethoxy)phenyl]-N′-(6-methoxypyridin-3-yl)urea]	< 2000
CC(C)Oc1ccc(NC(=O)Nc2ccccc2)cc1 [Compound 224, N-(4-isopropoxyphenyl)-N′-phenylurea]	< 2000
Cc1nc2ccc(NC(=O)Nc3ccc(OC(F)F)cc3)cc2o1 [Compound 130, N-[4-(difluoromethoxy)phenyl]-N′-(2-methyl-1,3-benzoxazol-6-yl)urea]	< 2000
COCc1ccc(NC(=O)Nc2cccc(C#N)c2)cc1 [Compound 269, N-(3-cyanophenyl)-N′-[4-(methoxymethyl)phenyl]urea]	< 2000

Other lines, results leading:

IC50 [nM]	Compound
< 2000	O=C(Nc1ccc(OC(F)F)cc1)Nc1ccc(-n2cnc(Cl)c2Cl)cc1 [Compound 82, N-[4-(4,5-dichloro-1H-imidazol-1-yl)phenyl]-N′-[4-(difluoromethoxy)phenyl]urea]
< 2000	CCCOc1ccc(NC(=O)Nc2ccc(C(C)=O)cc2)cc1 [Compound 275, N-(4-acetylphenyl)-N′-(4-propoxyphenyl)urea]
< 2000	COc1cc(NC(=O)Nc2ccc(C)cc2)ccc1OC(F)F [Compound 61, N-[4-(difluoromethoxy)-3-methoxyphenyl]-N′-(4-methylphenyl)urea]
< 2000	N#Cc1cc(NC(=O)Nc2ccc(OC(F)F)cc2)ccc1F [Compound 139, N-(3-cyano-4-fluorophenyl)-N′-[4-(difluoromethoxy)phenyl]urea]
< 2000	CCc1ccc(NC(=O)Nc2cccc(Cl)c2)cc1 [Compound 180, N-(3-chlorophenyl)-N′-(4-ethylphenyl)urea]
